Reference: patent US6573279B1, “Isoquinoline derivatives or salts thereof” (priority 1999, dated 2003)
Where a name gives a salt, the structure may show the parent alone.

| SMILES | melting point |
| --- | --- |
| COc1cc2c(cc1OC)CN(C(=O)C1CCCN(CCC(=O)Nc3cccc(Cl)c3)C1)CC2 (centres unmarked) (as salt: HCl) [Example 12] | 181 to 185 °C |
| COc1cc2c(cc1OC)CN(C(=O)C1CCCN(CCC(=O)Nc3ccc(OC)c(C(F)(F)F)c3)C1)CC2 (centres unmarked) (as salt: HCl) [Example 13] | 166 to 168 °C |
| COc1cc2c(cc1OC)CN(C(=O)C1CCCN(CCC(=O)Nc3ccc4ncsc4c3)C1)CC2 (centres unmarked) (as salt: HCl) [Example 14] | 183 to 185 °C |
| COc1cc(NC(=O)CCN2CCCC(C(=O)N3CCc4cc(OC)c(OC)cc4C3)C2)ccc1C (centres unmarked) (as salt: HCl) [Example 15] | 171 to 173 °C |
| COc1cc2c(cc1OC)CN(C(=O)C1CCCN(CCC(=O)Nc3ccc(C)c(F)c3)C1)CC2 (centres unmarked) (as salt: HCl) [Example 16] | 183 to 185 °C |
| COc1cc2c(cc1OC)CN(C(=O)C1CCN(CCC(=O)Nc3ccc4c(c3)OCO4)CC1)CC2 (as salt: HCl) [Example 19] | 203 to 206 °C |
| COc1cc2c(cc1OC)C(C)(C)CN(C(=O)C1CCCN(CCC(=O)Nc3ccc4c(c3)OCO4)C1)C2 (centres unmarked) (as salt: HCl) [Example 25] | 225 to 228 °C |
| COc1cc2c(cc1OC)CN(C(=O)[C@@H]1CCCN(CCNC(=O)c3ccc(F)cc3)C1)CC2 (as salt: salt) (hydrate or solvate) [Example 49] | 197 to 199 °C |
| COc1cc2c(cc1OC)CN(C(=O)[C@H]1CCCN(CCNC(=O)c3ccc(F)cc3)C1)CC2 (as salt: salt) (hydrate or solvate) [Example 50] | 187 to 191 °C |
| COc1ccc2c(c1)CCN(C(=O)C1CCCN(CCC(=O)Nc3ccc4c(c3)OCO4)C1)C2 (centres unmarked) (as salt: salt) [Example 17] | 179 to 180 °C |
| O=C(CCN1CCCC(C(=O)N2CCc3ccccc3C2)C1)Nc1ccc2c(c1)OCO2 (centres unmarked) (as salt: salt) [Example 18] | 195 to 196 °C |
| COc1cc2c(cc1OC)CN(C(=O)C1CCCN(CCC(=O)Nc3ccc4c(c3)OCO4)C1)CCC2 (centres unmarked) (as salt: salt) [Example 20] | 180 to 181 °C |
| COc1ccc(NC(=O)CCN2CCCC(C(=O)N3CCc4cc(OC)c(OC)cc4C3)C2)cn1 (centres unmarked) (as salt: salt) [Example 21] | 182 to 185 °C |
| COc1ccc(C(=O)NCCN2CCCC(C(=O)N3CCc4cc(OC)c(OC)cc4C3)C2)cc1C (centres unmarked) (as salt: salt) [Example 26] | 114 to 117 °C |
| COc1ccc(C(=O)NCCN2CCCC(C(=O)N3CCc4cc(OC)c(OC)cc4C3)C2)cc1F (centres unmarked) (as salt: salt) [Example 27] | 113 to 116 °C |
| COc1cc(C(=O)NCCN2CCCC(C(=O)N3CCc4cc(OC)c(OC)cc4C3)C2)ccc1C (centres unmarked) (as salt: salt) [Example 28] | 125 to 128 °C |
| COc1cc2c(cc1OC)CN(C(=O)C1CCCN(CCNC(=O)c3ccc(F)c(F)c3)C1)CC2 (centres unmarked) (as salt: salt) [Example 29] | 120 to 124 °C |
| COc1cc2c(cc1OC)CN(C(=O)C1CCCN(CCNC(=O)c3ccc4c(c3)OCCO4)C1)CC2 (centres unmarked) (as salt: salt) [Example 30] | 126 to 130 °C |

| SMILES | melting point |
| --- | --- |
| COc1cc2c(cc1OC)CN(C(=O)C1CCCN(CCNC(=O)c3ccc4c(c3)OC(F)(F)O4)C1)CC2 (centres unmarked) (as salt: salt) [Example 31] | 113 to 116 °C |
| CCOc1ccc(C(=O)NCCN2CCCC(C(=O)N3CCc4cc(OC)c(OC)cc4C3)C2)cc1 (centres unmarked) (as salt: salt) [Example 32] | 125 to 127 °C |
| COc1cc2c(cc1OC)CN(C(=O)C1CCCN(CCNC(=O)c3ccc(OC(C)C)cc3)C1)CC2 (centres unmarked) (as salt: salt) [Example 33] | 116 to 119 °C |
| COc1cc2c(cc1OC)CN(C(=O)C1CCCN(CCNC(=O)c3ccc4c(c3)OCC(=O)N4C)C1)CC2 (centres unmarked) (as salt: salt) [Example 34] | 130 to 138 °C |
| COc1cc2c(cc1OC)CN(C(=O)C1CCCN(CCNC(=O)c3ccc4c(c3)N(C)C(=O)CO4)C1)CC2 (centres unmarked) (as salt: salt) [Example 35] | 124 to 133 °C |
| COc1cc2c(cc1OC)CN(C(=O)C1CCCN(CCNC(=O)c3ccc(F)cc3)C1)CC2 (centres unmarked) (as salt: salt) [Example 40] | 137 to 141 °C |
| COc1cc2c(cc1OC)CN(C(=O)C1CCCN(CCNC(=O)c3cccc(Br)c3)C1)CC2 (centres unmarked) (as salt: salt) [Example 41] | 133 to 136 °C |
| COc1cc(OC)cc(C(=O)NCCN2CCCC(C(=O)N3CCc4cc(OC)c(OC)cc4C3)C2)c1 (centres unmarked) (as salt: salt) [Example 42] | 166 to 167 °C |
| COc1cc2c(cc1OC)CN(C(=O)C1CCCN(CCNC(=O)c3ccc(F)cc3F)C1)CC2 (centres unmarked) (as salt: salt) [Example 43] | 178 to 180 °C |
| COc1cc2c(cc1OC)CN(C(=O)C1CCCN(CCNC(=O)c3ccc(F)c(C(F)(F)F)c3)C1)CC2 (centres unmarked) (as salt: salt) [Example 44] | 186 to 188 °C |
| COc1cc2c(cc1OC)CN(C(=O)C1CCCN(CCNC(=O)c3ccc(F)c(Cl)c3)C1)CC2 (centres unmarked) (as salt: salt) [Example 45] | 111 to 112 °C |
| COc1cc2c(cc1OC)C(C)(C)CN(C(=O)C1CCCN(CCNC(=O)c3ccc4c(c3)OCO4)C1)C2 (centres unmarked) (as salt: salt) [Example 51] | 138 to 140 °C |
| COc1cc2c(cc1OC)CN(C(=O)[C@@H]1CCCN(CCC(=O)Nc3ccc4c(c3)OCO4)C1)CC2 (as salt: tartrate) [Example 5, (−)-3-[(R)-3-(6,7-dimethoxy-1,2,3,4-tetrahydroisoquinoline-2-carbonyl)piperidino]-N-(3,4-methylenedioxyphenyl)propanamide L-tartrate] | 174 to 175 °C |
| COc1cc2c(cc1OC)CN(C(=O)[C@H]1CCCN(CCC(=O)Nc3ccc4c(c3)OCO4)C1)CC2 (as salt: tartrate) [Example 6, (+)-3-[(S)-3-(6,7-dimethoxy-1,2,3,4-tetrahydroisoquinoline-2-carbonyl)piperidino]-N-(3,4-methylenedioxyphenyl)propanamide D-tartrate] | 175 to 177 °C |
| COc1ccc(NC(=O)CCN2CCCC(C(=O)N3CCc4cc(OC)c(OC)cc4C3)C2)cc1OC (racemic) (as salt: HCl) [Example 1, (±)-3-[3-(6,7-dimethoxy-1,2,3,4-tetrahydroisoquinoline-2-carbonyl)piperidino]-N-(3,4-dimethoxyphenyl)propanamide hydrochloride] | 154 to 156 °C |
| COc1cc2c(cc1OC)CN(C(=O)C1CCCN(CCC(=O)Nc3ccc4c(c3)OCO4)C1)CC2 (racemic) (as salt: HCl) [Example 2, (±)-3-[3-(6,7-dimethoxy-1,2,3,4-tetrahydroisoquinoline-2-carbonyl)piperidino]-N-(3,4-methylenedioxyphenyl)propanamide hydrochloride] | 226 to 228 °C |
| COc1ccc(NC(=O)CCN2CCCC(C(=O)N3CCc4cc(OC)c(OC)cc4C3)C2)cc1 (racemic) (as salt: HCl) [Example 4, (±)-3-[3-(6,7-dimethoxy-1,2,3,4-tetrahydroisoquinoline-2-carbonyl)piperidino]-N-(4-methoxyphenyl)propanamide hydrochloride] | 211 to 213 °C |
